We go through 1 compound from patent US12098119B2, “Compound used as SIRT6 small-molecule allosteric activator and pharmaceutical composition thereof” (Nutshell BioTech (Shanghai) Co., Ltd., priority 2017, dated 2024).

Holding throughout (format): cell-based
The subject of test [1] is H3K9Ac and H3K56Ac in HCT116 cells. The test is described as follows: Western blot of SIRT6 deacetylation substrates in HCT116 cells. The text has this:
(§1) A Western Blot experimental method is used to detect the effect of SIRT6 small molecule allosteric activator as active ingredients in Table 1 and Table 2 for SIRT6 deacetylated active substrates H3K9 AC and H3K56 AC in cell cells.
(§2) HEK-293 T cells, Bel7405 cells, PLC/PFR/5 cells, Bel 7402 cells, HCT116 cells, HT29 cells, SW 480 cells, and HCT116 cells are test objects.
(§3) Step 1: the compound mother liquor (solvent is DMSO) listed in Table 1 and Table 2, the gradient concentration comprising 0.5 μmol/L, 1 μmol/L, 5 μmol/L, 10 μmol/L, 25 μmol/L and 50 μmol/L;
(§4) Step 3: the cell state was good after 24 hours, the fresh culture solution (2 mL) was replaced, and the mother liquor configured above is added to the cell culture solution of the experimental group according to the ratio of 1:1000; the same volume of DMSO (2 ul) is added to the cell culture solution of the control group;
(§5) Step 4: continue to culture for a certain time (12 hours, 24 hours, 48 hours or 60 hours).
(§6) 1) for each group of cells at the end of culture, the culture medium in each well is discarded and washed with 1*PBS once;
(§7) 2) add 150 μl SDS lysate containing bromophenol blue into each well, mix well and transfer to 1.5 ml EP tube respectively;
(§8) 3) store at 95° C. for 5 min, then on ice for 5 min, repeat three times;
(§9) 4) the supernatant is centrifuged at 12000×g for 5 min for Western blot detection.
(In general: In western blotting, separated proteins are transferred to a membrane and probed.)

The subject of test [2] is H3K9Ac and H3K56Ac in HT29 cells. The test is described as follows: Western blot of SIRT6 deacetylation substrates in HT29 cells.
Text: as §1, §2, §3, §4, §5, §6, §7, §8, §9

In test [3] the test system is H3K9Ac and H3K56Ac in SW480 cells. The test is described as follows: Western blot of SIRT6 deacetylation substrates in SW480 cells.
Text: as §1, §2, §3, §4, §5, §6, §7, §8, §9

For the compound `C[C@@H]1COCCN1C(C)(C)C` [SOL-011], the “H3K9Ac and H3K56Ac (Western blot)” value in test [1] (CT116 cells, different concentrations, 48 hours, FIG. 45) is “down regulated H3K9Ac and h3k56ac”; in test [1] (HCT116 cells, 10 μmol/L, 24 hours and 48 hours, FIG. 42), “down regulated H3K9Ac and H3k56ac”; in test [2] (10 μmol/L, 24 hours and 48 hours, FIG. 43), “down regulated H3K9Ac and H3k56ac”; in test [2] (different concentrations, 48 hours, FIG. 46) it was “down regulated H3K9Ac and H3k56ac”; in test [3] (10 μmol/L, 24 hours and 48 hours, FIG. 44) it was “can down regulate H3K9Ac and H3k56ac”; in test [3] (different concentrations, 48 hours, FIG. 47) it was “down regulated H3K9Ac and H3k56ac”.
